Assay results as given in ChEMBL document CHEMBL2417439, “Selected furanochalcones as inhibitors of monoamine oxidase” (Bioorg Med Chem Lett, 2013).

Tests used:
[1] = organism: Homo sapiens; test: Selectivity index, ratio of IC50 for human recombinant MAO-A to IC50 for human recombinant MAO-B
[2] = target: T1, Amine oxidase [flavin-containing] B (Homo sapiens, UniProt P27338); test: Inhibition of human recombinant MAO-B expressed in insect cell microsomes using kynuramine as substrate assessed as formation of 4-hydroxyquinoline by fluorometric method; set-up: species or system Microsome
T1 sequence (P27338 whole entry): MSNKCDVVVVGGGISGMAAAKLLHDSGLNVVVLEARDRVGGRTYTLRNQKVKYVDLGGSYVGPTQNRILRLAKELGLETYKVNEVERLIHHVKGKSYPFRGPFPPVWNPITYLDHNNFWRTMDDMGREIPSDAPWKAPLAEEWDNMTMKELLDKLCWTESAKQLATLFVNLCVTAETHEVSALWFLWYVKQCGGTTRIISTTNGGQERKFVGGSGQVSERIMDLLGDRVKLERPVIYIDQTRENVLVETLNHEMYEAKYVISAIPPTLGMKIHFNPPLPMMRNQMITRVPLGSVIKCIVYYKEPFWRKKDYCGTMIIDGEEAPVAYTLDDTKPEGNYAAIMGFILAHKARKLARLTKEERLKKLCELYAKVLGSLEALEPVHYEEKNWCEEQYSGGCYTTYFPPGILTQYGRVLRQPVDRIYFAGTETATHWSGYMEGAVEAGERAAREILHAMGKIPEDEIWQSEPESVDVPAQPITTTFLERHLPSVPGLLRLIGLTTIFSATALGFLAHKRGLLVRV

[3] = target: T2, Amine oxidase [flavin-containing] A (Homo sapiens, UniProt P21397); test: Inhibition of human recombinant MAO-A expressed in insect cell microsomes using kynuramine as substrate assessed as formation of 4-hydroxyquinoline by fluorometric method; set-up: species or system Microsome
T2 sequence (P21397 whole entry): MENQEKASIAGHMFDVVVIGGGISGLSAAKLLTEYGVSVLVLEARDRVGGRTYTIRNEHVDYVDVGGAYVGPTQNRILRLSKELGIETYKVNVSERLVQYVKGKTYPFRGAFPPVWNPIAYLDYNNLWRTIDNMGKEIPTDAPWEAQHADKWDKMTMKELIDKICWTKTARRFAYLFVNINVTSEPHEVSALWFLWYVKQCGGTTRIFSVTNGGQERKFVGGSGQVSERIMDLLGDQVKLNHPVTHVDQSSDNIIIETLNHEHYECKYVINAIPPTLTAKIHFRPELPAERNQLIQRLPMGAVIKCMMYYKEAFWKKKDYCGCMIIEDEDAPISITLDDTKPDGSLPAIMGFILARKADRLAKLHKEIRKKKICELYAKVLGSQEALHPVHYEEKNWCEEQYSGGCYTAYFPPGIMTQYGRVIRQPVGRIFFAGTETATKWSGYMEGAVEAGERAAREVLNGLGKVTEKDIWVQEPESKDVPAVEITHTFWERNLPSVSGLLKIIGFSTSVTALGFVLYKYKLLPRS

[4] = target: T2, Amine oxidase [flavin-containing] A; test: Inhibition of human recombinant MAO-A expressed in insect cell microsomes using kynuramine as substrate assessed as formation of 4-hydroxyquinoline at 100 uM by fluorometric method; set-up: species or system Microsome
[5] = target: T3, Amine oxidase [flavin-containing] B (Rattus norvegicus, UniProt P19643); test: Displacement of [14C]-beta-PEA from rat MAO-B after 20 mins by liquid scintillation counting analysis
T3 sequence (P19643 whole entry): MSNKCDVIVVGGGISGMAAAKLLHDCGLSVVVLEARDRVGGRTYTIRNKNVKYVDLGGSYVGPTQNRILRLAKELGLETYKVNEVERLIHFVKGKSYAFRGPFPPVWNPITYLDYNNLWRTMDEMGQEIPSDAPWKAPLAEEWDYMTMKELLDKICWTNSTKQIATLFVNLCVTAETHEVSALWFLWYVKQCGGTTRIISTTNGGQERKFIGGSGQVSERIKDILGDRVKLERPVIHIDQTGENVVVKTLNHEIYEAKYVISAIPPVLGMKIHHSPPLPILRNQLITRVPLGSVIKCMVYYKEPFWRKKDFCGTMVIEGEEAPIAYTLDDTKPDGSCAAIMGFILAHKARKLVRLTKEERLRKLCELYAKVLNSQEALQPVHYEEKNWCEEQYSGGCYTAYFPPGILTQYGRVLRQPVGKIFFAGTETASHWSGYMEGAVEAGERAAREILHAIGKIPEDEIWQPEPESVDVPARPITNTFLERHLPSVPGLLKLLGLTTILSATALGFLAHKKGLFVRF

[6] = target: T4, Amine oxidase [flavin-containing] A (Rattus norvegicus, UniProt P21396); test: Displacement of [14C]-5HT from rat MAO-A after 20 mins by liquid scintillation counting analysis
T4 sequence (P21396 whole entry): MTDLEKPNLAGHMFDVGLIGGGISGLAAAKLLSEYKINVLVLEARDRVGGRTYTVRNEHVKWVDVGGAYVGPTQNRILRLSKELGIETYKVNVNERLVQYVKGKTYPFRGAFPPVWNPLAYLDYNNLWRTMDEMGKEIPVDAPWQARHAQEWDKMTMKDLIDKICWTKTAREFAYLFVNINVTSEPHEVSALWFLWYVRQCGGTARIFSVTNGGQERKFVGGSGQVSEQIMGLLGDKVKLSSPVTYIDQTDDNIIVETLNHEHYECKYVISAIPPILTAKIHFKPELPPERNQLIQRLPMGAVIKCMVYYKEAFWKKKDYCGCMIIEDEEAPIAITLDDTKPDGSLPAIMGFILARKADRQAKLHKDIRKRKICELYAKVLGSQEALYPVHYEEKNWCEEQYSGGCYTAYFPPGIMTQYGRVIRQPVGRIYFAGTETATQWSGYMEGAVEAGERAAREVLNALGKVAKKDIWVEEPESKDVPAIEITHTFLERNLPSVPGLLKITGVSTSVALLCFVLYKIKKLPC

Structure (SMILES)	Ratio IC50 [1]	IC50 [2]	IC50 [3]	inhibition (INH) [4]	IC50 [5]	IC50 [6]
Cc1ccc(C(=O)/C=C/c2ccc(F)cc2)o1	20	0.924 µM	18.6 µM			
COc1cccc(/C=C/C(=O)c2ccc(C)o2)c1				Not Active		
O=C(/C=C/c1ccc(O)cc1)c1ccc(O)cc1O [ISOLIQUIRITIGENIN]					47.2 µM	13.9 µM
Cc1ccc(C(=O)/C=C/c2ccc(Br)cc2)o1	121	0.707 µM	85.7 µM			
